Source: US12268694B2, “Combination pharmaceutical agents as RSV inhibitors” (Enanta Pharmaceuticals, Inc., priority 2017, dated 2025)

Test system: genotype A, "Long" strain RSV
Assay: RSV-A assay: CPE protection in HEp-2 cells, ATPlite readout
Format: cell-based, human respiratory syncytial virus
Conditions: HEp-2 cells, RSV-A Long strain, ATPlite readout; read-out: Human RSV-A (“Long” strain) EC50
From the text: HEp-2 cells, (originally derived from tumors grown in irradiated-cortisonised weanling rats that had been injected with epidermoid carcinoma tissue from a person's larynx, but later found to be indistinguishable from HeLa cells by PCR DNA analysis), were used for the culturing of genotype A, “Long” strain RSV. Flasks were inoculated with RSV and viral stocks were collected once cytopathic effect (CPE) was greater than 90%. Viral stocks in 25% sucrose media were snap frozen using liquid nitrogen to increase viral stability. Viral stock titers were quantified by tissue culture infectious dose 50% (TCID50) using 8,000 cells per well and 3-fold viral dilutions across a 96-well plate, cultured for 4 days. Viral stock titers were also quantified by a plaque forming unit assay, as described elsewhere.
Following extensive parameter testing, the final assay is run as follows: HEp-2 cells are seeded into the inner 60 wells of a 96-well plate at 8,000 cells per well in a volume of 50 μL using Growth Media (DMEM without phenol red, 1% L-Glut, 1% Penn/Strep, 1% nonessential amino acids, 10% heat-inactivated FBS). 2-fold serial dilutions of control and test compounds are added to the wells in duplicate in a total volume of 25 μL. Viral stock is then added to the wells at a multiplicity of infection (MOI) of 0.1 in a volume of 25 μL, bringing the total volume of each well to 100 μL. The MOI is calculated using the PFU/mL, or TCID50 if unavailable. Each 96-well plate has a control column of 6 wells with cells and virus but no compound (negative control, max CPE), a column with cells but no compound or virus (positive control, minimum CPE), and a column with no cells or virus or compound (background plate/reagent control). The control wells with cells but no virus are given an additional 25 μL of growth media containing an equal quantity of sucrose as those wells receiving the viral stock in order to keep consistent in media and volume conditions. The outer wells of the plate are filled with 125 μL of moat media (DMEM, 1% Penn/Strep) to act as a thermal and evaporative moat around the test wells. Following a 5-day incubation period, the plates are read using ATPlite (50 μL added per well), which quantifies the amount of ATP (a measure of cell health) present in each well. Assay plates are read using the Envision luminometer. In parallel, cytotoxicity is examined on an additional 96-well plate treated in an identical manner, but substituting the 25 μL of viral stock for 25 μL of growth media. […] EC50 ranges are as follows: A <0.4 μM; B 0.4-0.8 μM; C >0.8 μM and CC50 ranges are as follows: A >50 μM; B 10-50 μM; C <10 μM.

Structure (SMILES) | EC50 [nM]
O=C1Nc2ccccc2C(c2ccccc2)=NC1Nc1nnc(-c2ncc(F)cc2N2CCOCC2)o1 (stereo not shown) [Example 137] | > 800
O=C1Nc2ccccc2C(c2ccccc2)=NC1Nc1nnc(-c2ccc(F)nc2N2CCOCC2)o1 (stereo not shown) [Example 149] | 400 to 800
O=C1Nc2ccccc2C(c2ccccc2)=N[C@@H]1Nc1nnc(-c2cn(-c3ccc(C(F)(F)F)nc3)nc2N2CCOCC2)o1 [Example 444] | < 400

Same assay, conditions: human respiratory syncytial virus, HEp-2, read-out: Human RSV-A (“Long” strain) EC50

Structure (SMILES) | EC50 [nM]
Cc1nc(-c2nnc(N[C@H]3N=C(c4ccccc4)c4ccccc4NC3=O)o2)c(C2CCOCC2)s1 [Example 346, (S)-3-((5-(2-methyl-5-(tetrahydro-2H-pyran-4-yl)thiazol-4-yl)-1,3,4-oxadiazol-2-yl)amino)-5-phenyl-1,3-dihydro-2H-benzo[e][1,4]diazepin-2-one] | < 400
O=C1Nc2ccccc2C(c2ccccc2)=N[C@@H]1Nc1nnc(-c2nc(-c3ccc(C(F)(F)F)nc3)sc2N2CCOCC2)o1 [Example 390] | < 400
Cc1noc(C)c1-c1cc(C#N)ccc1-c1nnc(N[C@H]2N=C(c3ccccc3)c3ccccc3NC2=O)o1 [Example 320] | > 800
O=C1Nc2ccccc2C(c2ccccc2)=N[C@@H]1Nc1nnc(-c2nc(-c3ccc(F)cn3)sc2N2CCOCC2)o1 [Example 389] | < 400
O=C1Nc2ccccc2C(c2ccccc2)=NC1Nc1nnc(-c2cccnc2N2CCC(O)CC2)o1 (stereo not shown) [Example 255] | > 800
O=C1Nc2ccccc2C(c2ccccc2)=NC1Nc1nnc(-c2cc(F)cnc2N2CCOCC2)o1 (stereo not shown) [Example 145] | 400 to 800
O=C1Nc2ccccc2C(c2ccccc2)=NC1Nc1nnc(-c2ccc(N3CCOCC3)cc2Cl)o1 (stereo not shown) [Example 122] | > 800
O=C1Nc2ccccc2C(c2ccccc2)=N[C@H]1Nc1nnc(-c2ccc(N3CCOCC3)cc2)o1 [Example 124b] | > 800
O=C1Nc2ccccc2C(c2ccccc2)=N[C@@H]1Nc1nnc(-c2cn(-c3ccccn3)nc2N2CCOCC2)o1 [Example 431] | < 400
CC(C)(C)c1nnc(NC2N=C(c3ccccc3)c3ccccc3NC2=O)o1 (stereo not shown) [Example 189] | > 800
CO[C@@H](C)CNc1sc(C(F)(F)F)nc1-c1nnc(N[C@H]2N=C(c3ccccc3)c3ccccc3NC2=O)o1 [Example 452] | < 400
O=C1Nc2ccccc2C(c2ccccc2)=NC1Nc1ccc(-c2ccncc2)nn1 (stereo not shown) [Example 375] | > 800
COCCNc1sc(C)nc1-c1nnc(N[C@H]2N=C(c3ccccc3)c3ccccc3NC2=O)o1 [Example 335] | < 400
O=C1Nc2ccccc2C(c2ccccc2)=NC1Nc1nnc(-c2ccccc2OC2CCOCC2)o1 (stereo not shown) [Example 239] | > 800
O=C1Nc2ccccc2C(c2ccccc2)=N[C@@H]1Nc1nnc(-c2ncc(C(F)(F)F)cc2N2CCOC(C(F)(F)F)C2)o1 (mixture of isomers) [Example 467] | < 400
COCCOc1ccccc1-c1nnc(NC2N=C(c3ccccc3)c3ccccc3NC2=O)o1 (stereo not shown) [Example 229] | > 800
O=C1Nc2ccccc2C(c2ccccc2)=NC1Nc1nnc(-c2cccnc2N2C[C@H]3COC[C@H]3C2)o1 (stereo partly shown) [Example 267] | > 800
COCCNc1cc(C(F)(F)F)cnc1-c1nnc(N[C@H]2N=C(c3ccccc3)c3ccccc3NC2=O)o1 [Example 305] | < 400
O=C1Nc2ccccc2C(c2ccccc2)=NC1Nc1nnc(-c2ccc(N3CCOCC3)cn2)o1 (stereo not shown) [Example 114] | > 800
COCCn1ccnc1-c1nnc(N[C@H]2N=C(c3ccccc3)c3ccccc3NC2=O)o1 [Example 306] | > 800
O=C1Nc2ccccc2C(c2ccccc2)=N[C@@H]1Nc1nnc(-c2ncc(C(F)(F)F)cc2-c2ccncc2)o1 [Example 282] | > 800
COC1CCN(c2ncccc2-c2nnc(NC3N=C(c4ccccc4)c4ccccc4NC3=O)o2)CC1 (stereo not shown) [Example 254] | > 800
COCCn1c(-c2nnc(N[C@H]3N=C(c4ccccc4)c4ccccc4NC3=O)o2)nc2ccccc21 [Example 298] | > 800

Structure (SMILES) | EC50 [nM]
C[C@H]1COCCN1c1ncccc1-c1nnc(NC2N=C(c3ccccc3)c3ccccc3NC2=O)o1 (stereo partly shown) [Example 261] | > 800
O=C1Nc2ccccc2C(c2ccccc2)=N[C@@H]1Nc1nnc(-c2ncc(C(F)(F)F)cc2NCc2ccco2)o1 [Example 421] | > 800
O=C1Nc2ccccc2C(c2ccccc2)=N[C@@H]1Nc1nnc(-c2ncc(C(F)(F)F)cc2N[C@H]2CCOC2)o1 [Example 470] | > 800
CN1CCN(c2ncccc2-c2nnc(NC3N=C(c4ccccc4)c4ccccc4NC3=O)o2)CC1 (stereo not shown) [Example 237] | > 800
O=C1Nc2ccccc2C(c2ccccc2)=NC1Nc1nnc(-c2ccccc2-n2cccn2)o1 (stereo not shown) [Example 283] | > 800
O=C1Nc2ccccc2C(c2ccccc2)=N[C@@H]1Nc1nnc(-c2nc3ccccc3nc2N2CCOCC2)o1 [Example 433] | < 400
CC(C)(O)c1nc(-c2nnc(N[C@H]3N=C(c4ccccc4)c4ccccc4NC3=O)o2)c(N2CCOCC2)s1 [Example 437] | < 400
O=C1Nc2ccccc2C(c2ccccc2)=NC1Nc1nnc(-c2ncccc2N2CCOCC2)o1 (stereo not shown) [Example 132] | < 400
O=C1Nc2ccccc2C(c2ccccc2)=NC1Nc1nnc(-c2ccc(-n3ccc(C(F)(F)F)n3)cc2)o1 (stereo not shown) [Example 202] | > 800
CO[C@H]1CCN(c2ncccc2-c2nnc(NC3N=C(c4ccccc4)c4ccccc4NC3=O)o2)C1 (stereo partly shown) [Example 247] | > 800
O=C1Nc2ccccc2C(c2ccccc2)=N[C@@H]1Nc1nnc(-c2nc(-c3ccc(F)cc3)sc2N2CCOCC2)o1 [Example 428] | < 400
O=C1Nc2ccccc2C(c2ccccc2)=N[C@H]1Nc1nnc(-c2ccccc2N2CCOCC2)o1 [Example 125b] | > 800
N#Cc1ccc(-c2nnc(N[C@H]3N=C(c4ccccc4)c4ccccc4NC3=O)o2)c(-c2ccoc2)c1 [Example 319] | > 800
C#Cc1nc(-c2nnc(N[C@H]3N=C(c4ccccc4)c4ccccc4NC3=O)o2)c(N2CCOCC2)s1 [Example 406] | < 400
CS(=O)(=O)c1cnc(-c2nnc(N[C@H]3N=C(c4ccccc4)c4ccccc4NC3=O)o2)c(N2CCOCC2)c1 [Example 332] | > 800
O=C1Nc2ccccc2C(c2ccccc2)=NC1Nc1nnc(-c2cc(F)ccc2N2CCOCC2)o1 (stereo not shown) [Example 119] | 400 to 800
O=C1Nc2ccccc2C(c2ccccc2)=NC1Nc1nnc(-c2ccc(-n3ccnc3)nc2)o1 (stereo not shown) [Example 232] | > 800
Cc1nc(-c2nnc(N[C@H]3N=C(c4ccccc4)c4ccccc4NC3=O)o2)c(C2=CCOCC2)s1 [Example 345, (S)-3-((5-(5-(3,6-dihydro-2H-pyran-4-yl)-2-methylthiazol-4-yl)-1,3,4-oxadiazol-2-yl)amino)-5-phenyl-1,3-dihydro-2H-benzo[e][1,4]diazepin-2-one] | < 400
O=C1Nc2ccccc2C(c2ccccc2)=N[C@@H]1Nc1nnc(-c2ncc(N3CCCC3)cc2N2CCOCC2)o1 [Example 314] | < 400
Cc1nc(-c2nnc(N[C@H]3N=C(c4ccccc4)c4ccccc4NC3=O)o2)cs1 [Example 343] | > 800
Cn1ncc(N2CCOCC2)c1-c1nnc(N[C@H]2N=C(c3ccccc3)c3ccccc3NC2=O)o1 [Example 178] | 400 to 800
O=C1Nc2ccccc2C(c2ccccc2)=N[C@@H]1Nc1nnc(-c2cnc(N3CCOCC3)nc2)o1 [Example 165] | 400 to 800
O=C1Nc2ccccc2C(c2ccccc2)=N[C@@H]1Nc1nnc(-c2cc(C3CC3)sc2N2CCOCC2)o1 [Example 384] | < 400
